Measurements reported in ChEMBL document CHEMBL2074030, “The systemic exposure of an N-methyl-D-aspartate receptor antagonist is limited in mice by the P-glycoprotein and breast cancer resistance protein efflux transporters” (Drug Metab Dispos, 2004).

Biological target: ATP-dependent translocase ABCB1 (Mus musculus, UniProt P21447)
Test: TP_TRANSPORTER: transepithelial transport (apical to basal) in Mdr1a-expressing LLC-PK1 cells
Assay type: functional, cell-based
Conditions: pig

ATP-dependent translocase ABCB1, sequence (P21447 whole entry): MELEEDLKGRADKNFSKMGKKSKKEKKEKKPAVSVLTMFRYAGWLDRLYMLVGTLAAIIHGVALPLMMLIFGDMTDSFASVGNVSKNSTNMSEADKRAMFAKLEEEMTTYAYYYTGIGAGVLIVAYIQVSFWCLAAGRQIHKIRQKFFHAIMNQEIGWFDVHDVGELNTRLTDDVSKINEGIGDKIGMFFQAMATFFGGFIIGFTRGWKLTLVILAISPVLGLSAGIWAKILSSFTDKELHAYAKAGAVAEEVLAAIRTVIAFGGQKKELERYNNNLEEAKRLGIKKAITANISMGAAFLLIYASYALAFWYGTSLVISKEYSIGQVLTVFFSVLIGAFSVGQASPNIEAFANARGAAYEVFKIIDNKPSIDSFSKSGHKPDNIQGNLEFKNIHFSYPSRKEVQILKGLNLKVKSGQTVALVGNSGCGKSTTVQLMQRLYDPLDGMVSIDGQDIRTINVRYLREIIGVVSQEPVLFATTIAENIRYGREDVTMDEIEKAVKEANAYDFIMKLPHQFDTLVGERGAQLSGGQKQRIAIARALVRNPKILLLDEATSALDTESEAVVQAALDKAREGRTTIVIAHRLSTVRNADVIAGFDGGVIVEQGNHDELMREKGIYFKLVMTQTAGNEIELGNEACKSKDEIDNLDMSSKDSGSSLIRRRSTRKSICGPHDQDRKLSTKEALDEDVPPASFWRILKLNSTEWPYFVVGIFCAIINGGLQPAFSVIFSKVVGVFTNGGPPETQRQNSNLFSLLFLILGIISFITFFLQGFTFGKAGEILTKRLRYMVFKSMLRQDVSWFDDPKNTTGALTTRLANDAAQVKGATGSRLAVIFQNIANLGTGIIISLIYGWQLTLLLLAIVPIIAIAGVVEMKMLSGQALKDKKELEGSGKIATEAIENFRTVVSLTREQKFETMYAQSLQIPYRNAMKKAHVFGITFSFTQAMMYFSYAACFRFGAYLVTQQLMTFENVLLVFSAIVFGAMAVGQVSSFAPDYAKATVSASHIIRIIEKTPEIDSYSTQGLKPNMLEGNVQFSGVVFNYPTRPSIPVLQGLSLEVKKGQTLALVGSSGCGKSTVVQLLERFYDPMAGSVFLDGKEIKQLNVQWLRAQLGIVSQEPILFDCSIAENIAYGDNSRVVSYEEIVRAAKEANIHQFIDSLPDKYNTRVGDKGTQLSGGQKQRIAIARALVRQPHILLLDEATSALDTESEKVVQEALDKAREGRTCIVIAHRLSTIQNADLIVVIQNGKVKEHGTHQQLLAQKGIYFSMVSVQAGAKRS

SMILES | Activity
O=C(O)c1[nH]c2cc(Cl)cc(Cl)c2c1/C=C1\CCN(c2ccccc2)C1=O | is not a substrate [-]
CC(C)CN(C[C@@H](O)[C@H](Cc1ccccc1)NC(=O)O[C@H]1CCOC1)S(=O)(=O)c1ccc(N)cc1 [AMPRENAVIR] | substrate [+]
